The conditions of data set [1]: cited from earlier work.
For data set [2] the following is noted: cited from earlier work. This is another data set of the same source.
A short description of data set [3]: Relaxivity of O2 toward 129Xe and T1 estimates derived from it. It counts as physicochemical. The settings on record: for T1: absence of other relaxers. From the text: It is known that ^129Xe, which has a long longitudinal relaxation time in the gas phase, can be relaxed by magnetic dipole-dipole interaction and/or Fermi-Contact interaction with the unpaired electron spins of dioxygen. (Reference 18). The solubility of Xenon (and also of dioxygen) in water is low. Due to the low sensitivity of the ^129Xe signal, the time required for determining the relaxivity of O2 toward ^129Xe with a series of T1 determinations over a range of O2 concentrations in water would be prohibitively long.
The relaxivity of O2 toward ^129Xe has been measured in only one liquid, i.e., octanol, which models an amphipathic membrane lipid. (Reference 17). The observed relaxivity, 0.029 s^−1mM^−1, is about three times larger than that estimated from previous reports for gas-phase relaxation, i.e., (Reference 18), 0.0087 s^−1mM^−1, as might be expected for encounters in the condensed phase. The dioxygen relaxivity for ^129Xe is constant over the concentration range studied, and thus 1/T1 will be a linear function of O2 concentration over the entire physiological range (0-0.2 atm, 0-0.2 mM). This translates into a T1 value of 18 s in air-saturated lipid, and 80 s in anaerobic lipid, in the absence of other relaxers. This is the first reported value for the O2 relaxivity toward ^129Xe in a condensed phase. T2values over these O2 concentrations have been determined to range from 0.5 to 5.0 s. […] In fact, given the relative inefficiency of the known non-paramagnetic relaxation mechanisms, it is suspected that T1 in many tissues will not fall below seconds or even tens of seconds.
This estimate of T1≈38 s for ^129Xe dissolved in rat blood at 293° K is very encouraging. […] One can also estimate T1 values for other model systems. The T1 of ^129Xe in water has been measured at 300° K to be 130 s. […] While the actual values of T1 in each tissue must be, and remain to be, determined, it is expected that the minimum value will fall above 15 s, a duration sufficient to enable significant accumulation of polarized ^129Xe in major tissues. […]

The conditions of data set [4]: dissolved in rat blood, 293° K, data obtained over 12 hr; cited from earlier work.
For data set [5] the following is noted: 30° C., 0.5 atm, cited from earlier work.
For data set [6] the following is noted: brain, cited from earlier work.
The conditions of data set [7]: inhaled, mouse; cited from earlier work.
For data set [8] the following is noted: cited from earlier work. The source holds these as a separate data set.
For data set [9] the following is noted: inhaled, humans; cited from earlier work.
[10] abbreviates: myoglobin (aqueous Fe(III) metmyoglobin).

“And” between values parts separate entries of the source, which are not always exact repeats. Equal values may be shown once. Read-outs that look alike come from different tables or passages of the source. Where only a bound is given, the exact number is not on record here.

On to `O=O` [O2, dioxygen], for which the “relaxivity of O2 toward 129Xe” value in data set [1] (gas phase, estimated from previous reports) is 0.0087 s⁻¹ mM⁻¹; in [1] (octanol, 300° K), 0.029 s⁻¹ mM⁻¹.
In the case of `[129Xe]` [^129Xe, Xenon-129], the T2 is 0.5 to 5.0 s in data set [1] (octanol, over O2 concentrations 0-0.2 atm); 0.88 s in data set [2] (benzene); 0.00057 s in [2] (setting [10]); 5.3 s in [2] (octanol); “≦56 hrs” in [2] (pure gas phase, 1 atm); 5.3 s in [2] (water). The T1 in data set [2] (10% Fe(III) metMb) is 0.005 s; in data set [2] (benzene, 9.4 T and 300° K, Diehl and Jokisaari), 155.0 ± 6.2 s; in data set [2] (benzene, 300° K), 160 s and 160.5 s; in data set [2] (benzene, Moschos and Reisse), 240 s; in data set [2] (setting [10]) it was 0.0052 s; in [2] (octanol), 80 s and 78.5 s. Besides, the T1 entry is “at least 3000 s” in [2] (pure gas phase, practically); 130 s and 131.3 s in data set [2] (water); 18 s in [3] (air-saturated lipid); 80 s in data set [3] (anaerobic lipid); 38 s and ≈ 38 s in [4]. Besides, the “estimated T1” value in data set [3] (fully oxygenated membranes) was over 15 s.
As for `[Xe]` [Xenon], the “solubility of Xenon in octanol” value in [5] (octanol) was 48 mM. In addition, in [5] (water), the “solubility of Xenon in water” value was 2.4 mM. In addition, in data set [6] (0.5-1.0 atm lung Xenon), the “steady-state concentration bound to proteins” value was 1 to 5 mM, the “steady-state concentration in the membrane bilayers” value is 5 to 10 mM and the “steady-state concentration in water” value is 2 to 4 mM. Besides, the “solubility in white matter versus gray matter” value in data set [6] is “approximately twice as soluble in white matter as in gray matter”. For the same compound, the “time to reach a steady state with the entire blood volume (one blood circuit)” value in data set [7] is reported as “about 1 s”. The metabolism entry in [8] (by the body) is listed as “not metabolized by the body”. The “period of recovery from the exhaled breath” value in data set [8] (human subjects) is about 20 min. Moreover, the “time to reach a steady state with the entire blood volume (one blood circuit)” value in data set [9] was “about 18 s”.
